{"source": "paper PMC8386742", "about": "“Discovery of N-aryl sulphonamide-quinazoline derivatives as anti-gastric cancer agents in vitro and in vivo via activating the Hippo signalling pathway” (Journal of Enzyme Inhibition and Medicinal Chemistry, 2021)", "key": {"MGC-803 cells": {"system": "MGC-803 cells", "test": "Annexin V-FITC/PI cell apoptosis assay, MGC-803 cells", "assay_type": "cell-based, human", "conditions": "MGC-803, high dose, 48 h", "procedure": "Bcl-2 regulated by the Hippo/YAP plays an important role in cell apoptosis. Therefore, we next examined the effects of compound 9i on cell apoptosis. MGC-803 and SGC-7901 cells were treated with compound 9i for 48 h, as shown in Figures 5(A,B), the nuclei of gastric cancer are dense and fragmented, and cells became round, small, and was induced to die. To determine the influence of compound 9i on cell death, MGC-803 and SGC-7901 cells treated with compound 9i were stained with Annexin V-FITC/PI. As shown in Figure 5(C), the high dose compound 9i treatment group induced over 60% of cell apoptosis at 48 h. As shown in Figure 5(D), some other apoptosis-related proteins were also regulated by compound 9i in MGC-803 and SGC-7901 cells. Compound 9i caused dose-dependent decreases of anti-apoptosis proteins c-IAP and Mcl-1. […] Mitochondrial membrane potential depolarisation and translocation from the mitochondria to the cytoplasm of cytochrome c are two key steps involved in the intrinsic apoptosis pathway. As shown in Figures 5(F–H), compound 9i depolarised mitochondrial membrane potential and induced the translocation of cytochrome c.\nFigure 5. Compound 9i induced apoptosis in MGC-803 and SGC-7901 cells. Density ratios relative to β-Actin were shown on the top of each Western blotting band. […] The cell line of each row appears only in tiny plot titles that cannot be read with certainty. […]"}, "HUEVC cells": {"system": "HUEVC cells", "test": "MTT antiproliferative assay, HUEVC normal cells", "assay_type": "cell-based", "conditions": "exposure for 48 h, non-cancer cell line", "procedure": "Furthermore, MGC-803 cells were more sensitive to the compounds than HCT-116, PC-3 cells MCF-7 cells. Moreover, we chose two other common gastric cancer cell lines (HGC-27 and SGC-7901) and another two normal cells GES-1 and HUEVC cells to examine for the inhibitory activity of compound 9i.\n(§1) Cell lines used were cultured in humidified incubator in a humidified atmosphere of 5% CO2 and 95% air. The RPMI-1640 medium was supplemented with 10% foetal bovine serum, penicillin (100 U/ml) and streptomycin (0.1 mg/ml).\n(§2) Cell lines were seeded into 96-well plates and incubated for 24 h. Then cells were treated with different concentrations of compounds. And after another 48 h, MTT reagent (20 μL per well) was added to each well and then incubated at 37 °C for 4 h. After the suspension was discarded, formazan was then dissolved with DMSO. Absorbencies of formazan solution were measured at 490 nm. The IC50 values of tested compounds were calculated by SPSS version 17.0."}, "[1]": {"system": "P38, ERK, AKT, mTOR and Wnt pathways", "test": "Activity on P38, ERK, AKT, mTOR and Wnt pathways in cells", "assay_type": "cell-based", "conditions": "20, 40 and 60 nM, 48 hours", "excerpt": "In this work, compound 9i was design and synthesized by SAR study of our reported tertiary amide derivatives compound 1 and compound 2. Therefore, we tested the influence of compound 9i on tubulin polymerization and AKT/mTOR and ERK […]\ninfluence on tubulin polymerization and P38, ERK, AKT, mTOR and Wnt pathways . […]\npathway. Therefore, we here reported N-sulfonamide-quinazoline derivatives as novel anti-gastric cancer agents via activating the Hippo signaling pathway in vitro and in […]\nSupporting Figure S1. A. Activity of compound 9i on tubulin polymerization . Tubulin polymerization extracellular, concentrations of Paclitaxel, Colchicine and 9i were 3 μmol/L; Activity of compound 9i on P38, ERK, AKT, mTOR and Wnt pathways, cells were incubated with […]\n(1 picture or pasted object on this page, not shown here)"}, "HCT-116 cells": {"system": "HCT-116 cells", "test": "MTT antiproliferative assay, HCT-116 cells", "assay_type": "cell-based, human", "conditions": "exposure for 48 h", "procedure": "The in vitro antiproliferative activities of new target compounds 6a–6g, 9a–9i, 10a–10j, 11a–11j, and 14a–14d were evaluated against four human cancer cell lines (MGC-803, PC-3, HCT-116, and MCF-7) using MTT assay and 5-FU as a positive drug. The following Tables 1–[4] depicted the results of in vitro antiproliferative activity.\nas §1, §2"}, "[2]": {"test": "In vivo toxicity in MGC-803 bearing mice (body weight, blood biochemistry, H&E)", "parameters": "species or system nude mice", "procedure": "The bodyweight of mice was recorded during the treatment every 3 days. […] Blood samples and organs were collected after mice were executed.\nA human gastric cancer subcutaneous transplantation tumour model was established with MGC-803 cells. After the tumour volume reaches 100 mm3 the MGC-803 bearing mice were randomised into 3 groups and intraperitoneal injection with normal saline or drugs continuously for 21 days. Tumour volume was measured every 3 days (Length × Width2/2). Mice were executed after treatment. 500 μL blood samples was collected each mouse, samples were then centrifuged at 2000 g for 10 min for biochemistry analysis. Tumour and organs tissues were harvested for H&E staining or immunochemistry detection. The experiments in the study were performed comply with the protocols approved by the Institutional Animal Care and Use Committee, Zhengzhou University."}}, "data": [{"compound": "COc1ccc(S(=O)(=O)N(Cc2nc(C)c3ccccc3n2)c2cc(OC)c(OC)c(OC)c2)cc1", "note": "[Compound 9i, 4-Methoxy-N-((4-methylquinazolin-2-yl)methyl)-N-(3,4,5-trimethoxyphenyl) benzene-sulfonamide]", "values": [{"measurement": "cell apoptosis", "setting": "MGC-803 cells", "result": "over 60%"}, {"measurement": "IC50", "setting": "HUEVC cells", "result": 26.2, "unit": "µM"}, {"measurement": "influence on P38, ERK, AKT, mTOR and Wnt pathways", "setting": "[1]", "result": "no strong influence"}, {"measurement": "IC50", "setting": "HCT-116 cells; Homo sapiens, HCT-116, 48 h", "result": 0.708, "unit": "µM"}, {"measurement": "IC50", "setting": "HCT-116 cells", "result": "0.7 ± 0.04", "unit": "µM"}, {"measurement": "blood biochemical indexes (ALT, AST, T-BIL, UA, CRE, BUN) versus vehicle control group", "setting": "[2]; blood samples after execution", "result": "no significant difference"}, {"measurement": "toxicity in vivo", "setting": "[2]; body weight, blood biochemistry, H&E staining of organs", "result": "did not show obvious toxicity in vivo"}, {"measurement": "bodyweight of mice versus vehicle control group", "setting": "[2]; recorded every 3 days during 21 days treatment", "result": "did not show a significant difference"}]}]}
